# Source: paper PMC3465515 (Nuclear medicine and biology, 2012)
# Like-named read-outs stand apart in the source and are kept apart here.
# Experiments:
# human ERβ = human ERβ (Homo sapiens, UniProt Q92731); assay: competitive radiometric binding assay with [3H]estradiol, ERβ; settings: for β/α ratio: ratio of RBA ERβ to RBA ERα
# human ERα = molecular target: T1, human ERα (Homo sapiens, UniProt P03372); assay: competitive radiometric binding assay with [3H]estradiol, ERα
# T1 sequence (P03372 1-595): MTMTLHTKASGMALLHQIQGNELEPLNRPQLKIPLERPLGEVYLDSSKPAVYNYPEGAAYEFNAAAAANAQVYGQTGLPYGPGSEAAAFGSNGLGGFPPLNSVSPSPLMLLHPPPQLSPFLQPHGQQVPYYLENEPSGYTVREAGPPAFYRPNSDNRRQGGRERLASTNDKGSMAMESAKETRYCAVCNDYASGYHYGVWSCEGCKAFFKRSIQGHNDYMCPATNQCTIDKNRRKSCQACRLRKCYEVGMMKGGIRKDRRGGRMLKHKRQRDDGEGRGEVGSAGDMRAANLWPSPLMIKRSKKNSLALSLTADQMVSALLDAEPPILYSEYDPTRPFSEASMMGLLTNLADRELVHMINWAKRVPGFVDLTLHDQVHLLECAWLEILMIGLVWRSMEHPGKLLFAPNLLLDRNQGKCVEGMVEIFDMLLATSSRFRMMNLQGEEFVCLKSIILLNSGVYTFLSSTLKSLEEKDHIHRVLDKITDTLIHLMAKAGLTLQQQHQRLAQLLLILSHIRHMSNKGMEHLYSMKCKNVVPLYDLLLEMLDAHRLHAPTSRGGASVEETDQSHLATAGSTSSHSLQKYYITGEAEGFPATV
# [1] = estradiol = 100, purified full-length human ERβ, 18-24 h at 0 °C
# [2] = estradiol = 100, purified full-length human ERα, 18-24 h at 0 °C
# Chain of human ERβ (Q92731 whole entry): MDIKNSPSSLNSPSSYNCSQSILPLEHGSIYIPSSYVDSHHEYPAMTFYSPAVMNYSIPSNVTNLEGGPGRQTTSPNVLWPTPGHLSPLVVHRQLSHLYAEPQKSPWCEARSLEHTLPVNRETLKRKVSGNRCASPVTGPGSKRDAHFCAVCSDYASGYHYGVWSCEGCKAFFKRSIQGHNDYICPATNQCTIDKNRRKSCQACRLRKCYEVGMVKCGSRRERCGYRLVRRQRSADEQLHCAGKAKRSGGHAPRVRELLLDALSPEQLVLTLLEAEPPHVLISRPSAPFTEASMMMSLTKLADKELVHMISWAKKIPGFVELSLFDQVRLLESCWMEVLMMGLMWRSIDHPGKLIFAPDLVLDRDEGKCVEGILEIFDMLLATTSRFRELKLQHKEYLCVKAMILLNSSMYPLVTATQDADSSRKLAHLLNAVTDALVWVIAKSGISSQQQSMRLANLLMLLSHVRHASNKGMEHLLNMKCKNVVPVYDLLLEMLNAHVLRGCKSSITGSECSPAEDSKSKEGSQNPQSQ
Relative Binding Affinity (RBA) ERβ (human ERβ),Relative Binding Affinity (RBA) ERα (human ERα),SMILES,β/α ratio (human ERβ),Relative Binding Affinity (RBA) ERβ (human ERβ; [1]),Relative Binding Affinity (RBA) ERα (human ERα; [2]),"fold lower affinity than parent 8BVE2, ERβ (human ERβ; vs 8β-vinylestradiol)","fold lower affinity than parent 8BVE2, ERα (human ERα; vs 8β-vinylestradiol)"
3.22 ± 0.91%,0.007 ± 0.001%,C=Cc1cc(O)cc2nc(-c3ccc(O)c(F)c3)oc12 [ERB-041],460,–,–,–,–
–,–,N#C[C@H](c1ccc(O)cc1)[C@@H](CCF)c1ccc(O)cc1 [FEDPN],20,8.74 ± 1.87%,0.43 ± 0.09%,–,–
–,–,"C=C[C@@]12CCc3cc(O)ccc3[C@H]1CC[C@@]1(C)[C@H]2CC[C@@H]1O [compound 1, 8β-Vinyl-estra-1,3,5(10)-triene-3,17β-diol]",350,105%,0.30%,–,–
–,–,"C[C@]12CC[C@@H]3c4ccc(O)cc4CC[C@@]3(CCF)[C@@H]1CC[C@@H]2O [compound 6, 8β-(2-Fluoroethyl)estra-1,3,5(10)-trien-3,17β-diol]",179,8.27 ± 0.98%,0.046 ± 0.005%,~10 fold,~10 fold
